US11795196B2, “Mitochondria-targeting peptides” (Stealth BioTherapeutics Corp., priority 2017, dated 2023)

How the values were obtained:
rat [1] = assay: Rat Myocardial Infarction Model; format: in vivo; conditions: s.c. 2×2 mg/kg, 30 min before ischemia and 5 min before reperfusion, 30 min LAD occlusion, 24 hours post-reperfusion, n=8
Description: The Rat Myocardial Infarction Model was performed by IPST Therapeutique Inc, Sherbrooke, Quebec, Canada. The animals were randomized in terms of even distribution between treatment groups based on their body weight by the Study Director with the aim of scheduling animal from each treatment group for each day of surgery (when possible). • 1) Sham group: size of the group: n=2. Route of administration: n/a; • 2) Vehicle group: size of the group: n=8. Route of administration: s.c.; • 3) Testing article group: size of the group: n=8. Route of administration: s.c.; Treatment dose: 2×2 mg/kg, 30 min before ischemia and 5 min before reperfusion. Experimental Procedures Study Design • 1) On the day of the surgery, the rat will be anaesthetized with a mixture of 2 to 2.5%. isoflurane USP (Abbot Laboratories, Montreal Canada) in oxygen, and placed on a heating pad to maintain body temperature. • 2) The animal will be intubated and immediately ventilated by means of a positive-pressure rodent respirator set at 10 mL/kg bodyweight at a frequency of 65-70 strokes/min. • 3) A baseline blood sample (1 mL) will be taken from the jugular vein for baseline biomarkers quantification. The blood will be collected in lithium heparin microtainers and centrifuged at 3000 rpm, at 4±2° C. for 10 minutes. The plasma will be aliquoted in 2 samples of equal volume (approximately 250 μL). […] A 1 mL blood sample will be taken from the jugular vein, for 24 hrs biomarkers quantification. • 11) The heart will be excised and mounted into a Langendorff apparatus. […]

rat [2] = assay: Rat Acute Kidney Injury (AKI) Model, renal ischemia-reperfusion; format: in vivo; parameters: concentration or dose not given beside the values; conditions: 30 minutes renal artery occlusion of both kidneys, 24 hours after reperfusion, relative to vehicle
Description: The Rat Acute Kidney Injury (AKI) Model was performed by IPST Therapeutique Inc, Sherbrooke, Quebec, Canada. The animals were randomized in terms of even distribution between treatment groups based on their body weight by the Study Director with the aim of scheduling animal from each group at each day of surgery. The rats will be given free access to food and water. Experimental Procedures Induction of Ischemia-Reperfusion • 1. Rats will be anaesthetized with isoflurane USP (Abbot Laboratories, Montreal Canada) 2% in oxygen and placed on a heated pad to maintain body temperature. The ECG and oxygen saturation will be monitored for the entire surgical process. The body temperature will be monitored with a probe thermometer introduced into the abdomen, very close to the kidneys. • 2. A 1 mL blood draw will be taken from the jugular vein. The blood will be collected into lithium heparin tubes and centrifuged at 3000 rpm for 10 min. to obtain the plasma. The plasma will be separated into 200 μL aliquot and stored at −20° C. until dosage of biomarkers. • 3. The abdomen will be disinfected with providone iodine and alaparotomy will be performed. • 4. The kidneys will be exposed and a temporary suture will be placed around renal artery of the two kidneys. Renal ischemia will be visually confirmed by a gradual changed of the kidneys colour going from red to dark purple within a couple of minutes following the start of the ischemia. During the ischemia, the kidneys will be kept moist and warm using a heat lamp and sterile gauze soaked in warm (37° C.) saline. The temperature will be monitored with a probe thermometer introduced into the abdomen, very close to the kidneys. • 5. After 30 minutes of occlusion, the suture will be removed. • 6. The abdominal wounds will be closed with 4-0 silk suture, and the animal will be return to its cage. • 7. Twenty-four hours after reperfusion the rats will be re-anesthetized. A second blood draw will be taken as was done before the ischemia. • 8. Sham will be treated under same conditions as vehicle, except, kidneys will not be subjected to ischemic conditions. Detection of Biomarkers A 200 μL aliquot of plasma sample will be taken before the ischemia and 24 hours following the ischemia; both will be sent to the clinical laboratory of the CHUS (Centre Hospitalier Universitaire de Sherbrooke, Quebec, Canada) for detection of plasma level of creatinine (p.Cr) and Blood Urea Nitrogen (BUN). Computer Systems The following are the validated computer systems to be used during the conduct of this study. The analysis software will be Microsoft Office Excel 2007 installed on networked personal computers running Microsoft Windows8, XP Professional or Vista. Data Analysis Values are presented as means±SEM (standard error of the means) and presented by the symbol+on the graph. Repeat un-paired Student's t-tests were performed in Microsoft Excel 2007 on all experimental data. Differences were considered significant when p≤ 0.05. The vehicle group was compared to the sham group while the test article was compared to the vehicle group. The plasma creatinine post-UR (% mean of vehicle) was calculated using the following formula:
[formula] Where: p.Cr=Plasma creatinine Mean Δ plasma creatinine in sham group=Mean (plasma creatinine 24 h post-isch.−plasma creatinine pre-isch.) in sham group Mean Δ plasma creatinine in vehicle group=Mean ((plasma creatinine 24 h post-inch.−plasma creatinine pre-isch.)−Mean Δ plasma creatinine in sham group) in vehicle group The BUN post-I/R (% mean of vehicle) was calculated using the following formula:
[formula] […]

isolated rat hearts = assay: Ischemia-reperfusion injury, Langendorff isolated heart preparation; conditions: 30 min LAD occlusion + 120 min reperfusion, compound 1 μM in perfusion solution, mean; for White Necrotic Area, % of area at risk: only white necrotic tissue
[3] = 3H D-Arg-DMT-Lys-Phe-NH2 displacement filtration binding assay; conditions: rat heart homogenate, 3H D-Arg-DMT-Lys-Phe-NH2 6-8 nM; range the pharmacological standard had to stay in (quality control)
Description: 1) Radioligand Displacement Methods and Procedures
1.1 Rat Heart Homogenate Preparation
Aptuit is committed to the highest standards of animal welfare and is subject to legislation under the Italian Legislative Decree no. 26/2014. All studies were conducted in accordance with national legislation and under authorization issued by the Italian Ministry of Health. The rat heart homogenate aliquots were prepared according to the following procedure. Hearts from 20 Sprague Dawley male rats were dissected out and quickly frozen at −80° C. On the day of homogenate preparation, hearts were thawed at 4° C. Groups of 2 hearts in 2 volumes of ice cold 20 mM HEPES, 1 mM EDTA, pH 7.4 buffer were homogenized with the GentleMACS dissociator (Miltenyi Biotec) using the D02 protocol. The final suspension of 20 hearts was divided in 4 aliquots with additional ice cold buffer up to 200 mL for each tube, homogenized with a Polytron and centrifuged at 24,000g for 40 min at 4° C. (T21 Sorvall, Rotor SL0250T, 13,500 rpm). For each tube, the supernatant was discarded, and the pellet resuspended with 100 mL of ice cold buffer, homogenized and centrifuged. This step was repeated twice. The final pellets were collected together in one tube with 70 mL of buffer. […] The protein content, measured with the Bradford (Bio-Rad) method using BSA as standard was 6.15 mg/mL. […]

Molecule	Infarct size (%), Mean (rat [1]) [%]	BUN, % Protection, Mean (rat [2]) [%]	Plasma Creatinine, % Protection, Mean (rat [2]) [%]	Infarct size, % of area at risk (isolated rat hearts) [%]	White Necrotic Area, % of area at risk (isolated rat hearts) [%]	pIC50, high affinity value of the unlabeled SBT-031 displacement curve [3]
Cc1cc(O)cc(C)c1C[C@H](NC(=O)[C@H](N)CCCNC(=N)N)C(=O)N[C@@H](CCCCN)c1nc(CC23CC4CC(CC(C4)C2)C3)no1 [Example 37, (R)-N-((S)-1-(((S)-1-(3-(adamantan-1-ylmethyl)-1,2,4-oxadiazol-5-yl)-5-aminopentyl)amino)-3-(4-hydroxy-2,6-dimethylphenyl)-1-oxopropan-2-yl)-2-amino-5-guanidinopentanamide]	29.2	44.3	30.7			
Cc1cc(O)cc(C)c1C[C@H](NC(=O)[C@H](N)CCCNC(=N)N)C(=O)N[C@@H](CCCCN)c1nc(Cc2ccccc2)no1 [Example 31, (R)-2-amino-N-((S)-1-(((S)-5-amino-1-(3-benzyl-1,2,4-oxadiazol-5-yl)pentyl)amino)-3-(4-hydroxy-2,6-dimethylphenyl)-1-oxopropan-2-yl)-5-guanidinopentanamide]	16.4	81.4	86.2	35	22	
D-Arg-DMT-Lys-Phe-NH2 [SBT-031]						7.6±0.5
Cc1cc(O)cc(C)c1C[C@H](NC(=O)[C@H](N)CCCNC(=N)N)C(=O)N[C@@H](CCCCN)c1nc(C23CC4CC(CC(C4)C2)C3)no1 [Example 38, D-Arg-DMT-NH((S)-1-(3-(adamantan-1-yl)-1,2,4-oxadiazol-5-yl)-5-aminopent-1-yl)]	30.6			31	15	
